# From US20250230193A1, “CYCLIC COMPOUND HAVING SELECTIVE KRAS INHIBITORY EFFECT ON HRAS AND NRAS” (CHUGAI SEIYAKU KABUSHIKI KAISHA, priority 2022, published 2025)
# Where a SMILES comes first, the peptide text is derived from it. Bridges are numbered along the chain shown (N, C = ends). [ ]: non-standard residue; d: D form. hPhe(3-Cl-4-CF3) = N[C@@H](CCc1ccc(C(F)(F)F)c(Cl)c1)C(=O)O; NPrPhe(4-CF3) = CCCN[C@@H](Cc1ccc(C(F)(F)F)cc1)C(=O)O; NMeGly(cPent) = CN[C@H](C(=O)O)C1CCCC1; Pro(4,4-F2) = O=C(O)[C@@H]1CC(F)(F)CN1; NMeD = CN[C@@H](CC(=O)O)C(=O)O; NMeL = CN[C@@H](CC(C)C)C(=O)O; NMeA = CN[C@@H](C)C(=O)O; Ac5c = NC1(C(=O)O)CCCC1; Aze = O=C(O)[C@@H]1CCN1; Sar = CNCC(=O)O
# Legend:
# [1] = target: GDP-bound HRAS wild-type protein (Homo sapiens, UniProt P01112); test: Binding to HRAS by surface plasmon resonance (SPR), Single Cycle Kinetics; conditions: for HRAS/KRAS (ratio of KD value with respect to HRAS to KD value with respect to KRAS): GDP-bound HRAS wild-type vs GDP-bound KRAS wild-type
# [2] = target: GDP-bound NRAS wild-type protein (Homo sapiens, UniProt P01111); test: Binding to NRAS by surface plasmon resonance (SPR), Single Cycle Kinetics; conditions: for NRAS/KRAS (ratio of KD value with respect to NRAS to KD value with respect to KRAS): GDP-bound NRAS wild-type vs GDP-bound KRAS wild-type
# GDP-bound NRAS wild-type protein, sequence (P01111 whole entry): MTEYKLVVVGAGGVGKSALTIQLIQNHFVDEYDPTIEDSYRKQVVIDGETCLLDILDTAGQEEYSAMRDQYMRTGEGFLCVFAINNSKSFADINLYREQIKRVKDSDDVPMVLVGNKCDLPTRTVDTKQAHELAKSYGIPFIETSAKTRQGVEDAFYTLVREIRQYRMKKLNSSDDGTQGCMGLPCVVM
# GDP-bound HRAS wild-type protein, sequence (P01112 whole entry): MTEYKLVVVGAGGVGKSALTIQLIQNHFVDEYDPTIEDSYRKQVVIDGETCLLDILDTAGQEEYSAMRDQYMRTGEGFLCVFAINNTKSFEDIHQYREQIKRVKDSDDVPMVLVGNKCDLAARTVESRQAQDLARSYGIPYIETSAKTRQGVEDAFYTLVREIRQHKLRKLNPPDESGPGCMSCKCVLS
structure (smiles),measurement,setting,value
CCC[C@H]1C(=O)N[C@@H]([C@@H](C)CC)C(=O)N(C)CC(=O)N(C)[C@H]2C/C=C\CCN(C2=O)[C@@H](Cc2ccc(C(F)(F)F)cc2)C(=O)N(C)CC(=O)N[C@@H](CCc2ccc3sc(C)c(C)c3c2)C(=O)N2C[C@H](OCC)C[C@H]2C(=O)NC2(CC(C)(C)C2)C(=O)N(C)[C@@H](C(CC)CC)C(=O)N(C)[C@H](C(=O)N(C)C)CC(=O)N1C [PP2900],HRAS/KRAS (ratio of KD value with respect to GDP-bound HRAS wild-type protein to KD value with respect to KRAS),[1]; class symbols,A (a compound having 10 or more and less than 20 is denoted as A)
same,NRAS/KRAS (ratio of KD value with respect to GDP-bound NRAS wild-type protein to KD value with respect to KRAS),[2]; class symbols,AA (a compound having 20 or more is denoted as AA)
C#CCN1CC(=O)N(C)[C@H]2C/C=C\CCN(C2=O)[C@@H](Cc2ccc(C)cc2)C(=O)N(C)CC(=O)N[C@@H](CCc2ccc(C(F)(F)F)c(OC)c2)C(=O)N2C[C@H](OCC)C[C@H]2C(=O)NC2(CC(C)(C)C2)C(=O)N(C)[C@@H](C2CCCC2)C(=O)N(C)[C@H](C(=O)N(C)C)CC(=O)N(C)[C@@H](CCC)C(=O)N[C@@H]([C@@H](C)CC)C1=O [PP2099],HRAS/KRAS (ratio of KD value with respect to HRAS to KD value with respect to KRAS),[1]; SPR,A (a compound having 10 or more and less than 20 is denoted as A)
same,NRAS/KRAS (ratio of KD value with respect to NRAS to KD value with respect to KRAS),[2]; SPR,A (a compound having 10 or more and less than 20 is denoted as A)
CC[C@H](C)[C@@H]1NC(=O)[C@H](CC(C)C)N(C)C(=O)C[C@@H](C(=O)N2CCOCC2)N(C)C(=O)[C@H](C2CCCC2)N(C)C(=O)C2(CCCC2)NC(=O)[C@@H]2CCCN2C(=O)[C@H](CCc2cc(F)c(C(F)(F)F)c(F)c2)NC(=O)CN(C)C(=O)[C@H](Cc2ccc(C(F)(F)F)cc2)N2CCCCC[C@@H](C2=O)N(C)C(=O)CN(CC)C1=O [PP0483],HRAS/KRAS (ratio of KD value with respect to GDP-bound HRAS wild-type protein to KD value with respect to KRAS),[1]; SPR,B (a compound having 3 or more and less than 10 is denoted as B)
same,NRAS/KRAS (ratio of KD value with respect to GDP-bound NRAS wild-type protein to KD value with respect to KRAS),[2]; SPR,B (a compound having 3 or more and less than 10 is denoted as B)
CCO[C@@H]1C[C@H]2C(=O)NC3(CCC3)C(=O)N(C)[C@@H](C3CCCC3)C(=O)N(C)[C@H](C(=O)N(C)C)CC(=O)N(C)[C@@H](CCC(=O)N(C)C)C(=O)N[C@@H]([C@@H](C)CC)C(=O)N(C)CC(=O)N(C)[C@H]3C/C=C\CCN(C3=O)[C@@H](Cc3ccc(C(F)(F)F)cc3)C(=O)N(C)CC(=O)N[C@@H](CCc3cc(F)c(C(F)(F)F)c(F)c3)C(=O)N2C1 [PP1122],HRAS/KRAS (ratio of KD value with respect to HRAS to KD value with respect to KRAS),"[1]; KD ratio, SPR",B (a compound having 3 or more and less than 10 is denoted as B)
same,NRAS/KRAS (ratio of KD value with respect to NRAS to KD value with respect to KRAS),"[2]; KD ratio, SPR",A (a compound having 10 or more and less than 20 is denoted as A)
CCC(CC)[C@H]1C(=O)N(C)[C@H](C(=O)N(C)C)CC(=O)N(C)[C@@H](COC)C(=O)N[C@@H]([C@@H](C)CC)C(=O)N(C)CC(=O)N(C)[C@H]2C/C=C\CCN(C2=O)[C@@H](Cc2ccc(C)cc2)C(=O)N(C)CC(=O)N[C@@H](CCc2ccc(Cl)c(Cl)c2)C(=O)N2C[C@H](OC(C)C)C[C@H]2C(=O)N(C)C2(CC(C)(C)C2)C(=O)N1C [PP2814],HRAS/KRAS (ratio of KD value with respect to GDP-bound HRAS wild-type protein to KD value with respect to KRAS),[1]; class symbols,A (a compound having 10 or more and less than 20 is denoted as A)
same,NRAS/KRAS (ratio of KD value with respect to GDP-bound NRAS wild-type protein to KD value with respect to KRAS),[2]; class symbols,AA (a compound having 20 or more is denoted as AA)
CCO[C@@H]1C[C@H]2C(=O)NC3(CCC3)C(=O)N(C)[C@@H](C3CCCC3)C(=O)N(C)[C@H](C(=O)N(C)C)CC(=O)N(C)[C@@H](CC)C(=O)N[C@@H]([C@@H](C)CC)C(=O)N(C)CC(=O)N(C)[C@H]3CCCCCN(C3=O)[C@@H](Cc3ccc(F)c(C)c3)C(=O)N(C)CC(=O)N[C@@H](CCc3cc(F)c(C(F)(F)F)c(F)c3)C(=O)N2C1 [PP0912],HRAS/KRAS (ratio of KD value with respect to HRAS to KD value with respect to KRAS),"[1]; KD ratio, SPR",B (a compound having 3 or more and less than 10 is denoted as B)
same,NRAS/KRAS (ratio of KD value with respect to NRAS to KD value with respect to KRAS),"[2]; KD ratio, SPR",B (a compound having 3 or more and less than 10 is denoted as B)
CC[C@H](C)[C@@H]1NC(=O)[C@H](CC(C)C)N(C)C(=O)C[C@@H](C(=O)N2CCOCC2)N(C)C(=O)[C@H](C2CCCC2)N(C)C(=O)C2(CCCC2)NC(=O)[C@@H]2CCCN2C(=O)[C@H](CCc2cc(F)c(C(F)(F)F)c(F)c2)NC(=O)CN(C)C(=O)[C@H](Cc2ccc(C(F)(F)F)cc2)N2CCCC[C@@H](C2=O)N(C)C(=O)CN(C)C1=O [PP0552],HRAS/KRAS (ratio of KD value with respect to GDP-bound HRAS wild-type protein to KD value with respect to KRAS),[1]; SPR,B (a compound having 3 or more and less than 10 is denoted as B)
same,NRAS/KRAS (ratio of KD value with respect to GDP-bound NRAS wild-type protein to KD value with respect to KRAS),[2]; SPR,B (a compound having 3 or more and less than 10 is denoted as B)
"CCCN1C(=O)[C@@H]2CCN2C(=O)[C@H](C)N(C)C(=O)[C@H]([C@@H](C)CC)NC(=O)[C@H](CC(C)C)N(C)C(=O)C[C@@H](C(=O)N(C)C)N(C)C(=O)[C@H](C2CCCC2)N(C)C(=O)C2(CCCC2)NC(=O)[C@@H]2CC(F)(F)CN2C(=O)[C@H](CCc2ccc(C(F)(F)F)c(Cl)c2)NC(=O)CN(C)C(=O)[C@@H]1Cc1ccc(C(F)(F)F)cc1 [PP0436] ([NMeL]I[NMeA][Aze][NPrPhe(4-CF3)][Sar][hPhe(3-Cl-4-CF3)][Pro(4,4-F2)][Ac5c][NMeGly(cPent)][NMeD]-NMe2; lactam N-11)",HRAS/KRAS (ratio of KD value with respect to GDP-bound HRAS wild-type protein to KD value with respect to KRAS),[1]; SPR,C (A compound having a KD ratio of 0.1 or more and less than 3 is denoted as C)
same,NRAS/KRAS (ratio of KD value with respect to GDP-bound NRAS wild-type protein to KD value with respect to KRAS),[2]; SPR,C (A compound having a KD ratio of 0.1 or more and less than 3 is denoted as C)
